Reference: patent publication US9446084B2, “Use of free radical scavengers for protecting and treating skin and hair damages caused by chemotherapy” (Coty Prestige Lancaster Group GmbH, priority 2005, dated 2016)

Columns and labels:
[1] = RPF 'is known'; cited from earlier work
[2] = Radical protection factor (RPF) by electron spin resonance (ESR) against a test radical; assay type: biochemical
Description: S2=signal amplitude of the antioxidant.
As has already been described, the radical protection factor (RPF) determines the activity of a substance for binding free radicals against a test substance. This test substance consists of a highly reactive, semi-stable radical which reacts with all known antioxidation agents. Such radicals include nitroxides such as proxo (2.2,5.5-tetramethyl-1-dihydropyrrolinoxy-nitroxide), tempol (2.2,6.6-tetramethyl-1-piperidinoxy-4-ol-nitroxide), DTBN (di-tert-butyl-nitroxide or preferably DPPH (1.1-diphenyl-2-picryl-hydrazyl.
The RPF is measured in such a way that the signal amplitudes of the test radical created by electron spin resonance (ESR/EPR) are measured before and after mixing with an antioxidation agent/scavenger, and the RPF is calculated from this.
Ind. […] Here, based on the known concentration of the test substance (here: DPPH) or the number of its free radicals (radicals per ml), a signal amplitude S1 is measured using an ESR spectrometer. The test radical is dissolved in the same way as the antioxidation agent in a (e.g. 0.1 m) water/alcohol solution. Then the signal amplitude S2 of the antioxidation agent is measured. The normalised difference between the two signal amplitudes is the reduction factor RF RF=(S1-S2)/S1. The result of the radical reduction of the test substance RC×RF is normalised in relation to the quantity of the product input PI (mg/ml). Here, the RC is the quantity of the test substance, i.e. the known number of radicals in the test substance. The radical protection factor is calculated according to the following equation: […]
The radical protection factor can be determined using an ESR spectrometer (GALENUS GmbH, Berlin, Germany), and is a value for labelling products with regard to their ability to bind free radicals. The procedure is an in-vitro procedure, in which no individual properties of the user influence the antioxidants.

Compound | RPF known for standard antioxidation agents [1] | RPF (radical protection factor) ([2]; radical scavenger as such, ESR) | further results
CC(=O)Oc1c(C)c(C)c2c(c1C)CCC(C)(CCC[C@H](C)CCC[C@H](C)CCCC(C)C)O2 (stereo partly drawn) [α-tocopherylacetate] | 48 ×10^14 radicals/mg |  | 
cyclodextrines |  |  | RPF (radical protection factor) ([2]; unit not given): 0
CC(=O)OC/C=C(C)/C=C/C=C(C)/C=C/C1=C(C)CCCC1(C)C [all-trans-retinolacetate] | 196 ×10^14 radicals/mg |  | 
Cc1c(C)c2c(c(C)c1O)CCC(C)(CCCC(C)CCCC(C)CCCC(C)C)O2 (racemic) [DL-α-tocopherol] | 41200 ×10^14 radicals/mg |  | 
O=C(/C=C/c1ccc(O)c(O)c1)O[C@H](Cc1ccc(O)c(O)c1)C(=O)O [rosemary acid] |  | 36000-68000 ×10^14 radicals/mg | 
O=C1O[C@H]([C@@H](O)CO)C([O-])=C1OP(=O)([O-])[O-].[Na+].[Na+].[Na+] [natrium-ascorbyl-phosphate] |  | 35000 ×10^14 radicals/mg | 
O=C(OC[C@H]1O[C@@H](OC(=O)c2cc(O)c(O)c(OC(=O)c3cc(O)c(O)c(O)c3)c2)[C@H](OC(=O)c2cc(O)c(O)c(OC(=O)c3cc(O)c(O)c(O)c3)c2)[C@@H](OC(=O)c2cc(O)c(O)c(OC(=O)c3cc(O)c(O)c(O)c3)c2)[C@@H]1OC(=O)c1cc(O)c(O)c(OC(=O)c2cc(O)c(O)c(O)c2)c1)c1cc(O)c(O)c(OC(=O)c2cc(O)c(O)c(O)c2)c1 [tannic acid] |  | 310000 ×10^14 radicals/mg | 
CC1=C(/C=C/C(C)=C/C=C/C(C)=C/CO)C(C)(C)CCC1 [all-trans-retinol] | 827 ×10^14 radicals/mg |  | 
